# Measurements taken from paper PMC3265250 (Chemotherapy Research and Practice, 2011).
# Read-outs that look alike come from different tables or passages of the source. Positions of bridges follow the written chain, without caps; N, C: chain ends. Residues, ends and D or L forms follow the SMILES beside them.
# What was measured:
# S. aureus ATCC 6538P = assay: MIC, microbroth dilution, referential strain ATCC 6538P; format: cell-based, Staphylococcus aureus
# Description: (§1) A total number of 24 SA strains were obtained from patients with erythrodermia and 3 reference SA ones from the American Type Culture Collection: 6538P ATCC, 9144 ATCC, and 25923 ATCC (Institute of Experimental Therapy, Wroclaw, Poland). […] Polypropylene 96-well plates (Sigma-Aldrich) were incubated for 18 h at 37°C. MIC was taken as the lowest drug concentration at which a noticeable growth was inhibited. […] The experiments were performed in triplicate.
# S. aureus ATCC 25923 = assay: MIC, microbroth dilution, referential strain ATCC 25923; format: cell-based, Staphylococcus aureus
# Description: as §1
# [1] = tested on: Superantigen positive S. aureus (14); settings: for MIC 50% / MIC 90% / MIC Range: microbroth dilution, MHB II, 5 × 10^5 CFU/mL, 18 h at 37°C
# [2] = tested on: Superantigen negative S. aureus (10); settings: for MIC 50% / MIC 90% / MIC Range: microbroth dilution, MHB II, 5 × 10^5 CFU/mL, 18 h at 37°C
# [3] = tested on: Superantigen positive S. aureus (14); assay: microbe, parasite or virus in culture; settings: Staphylococcus aureus; for MIC50 / MIC90 / MIC: 18 h; for MIC: read-out: MIC Range
# S. aureus ATCC 9144 = assay: MIC, microbroth dilution, referential strain ATCC 9144; format: cell-based, Staphylococcus aureus
# [4] = tested on: Superantigen negative S. aureus (10); assay: microbe, parasite or virus in culture; settings: Staphylococcus aureus; for MIC50 / MIC90 / MIC: 18 h; for MIC: read-out: MIC Range
# clinical isolates of SA = settings: 18 h
# [5] = ATCC 6538P, microbroth dilution, MHB II, 5 × 10^5 CFU/mL, 18 h at 37°C, triplicate
# [6] = ATCC 25923, microbroth dilution, MHB II, 5 × 10^5 CFU/mL, 18 h at 37°C, triplicate
# [7] = superantigen positive clinical isolates (14), triplicate
# [8] = superantigen positive clinical isolates (14), more than 99.9% reduction of the initial inoculums, triplicate
# [9] = superantigen negative clinical isolates (10), triplicate
# [10] = superantigen negative clinical isolates (10), more than 99.9% reduction of the initial inoculums, triplicate
# [11] = ATCC 9144, microbroth dilution, MHB II, 5 × 10^5 CFU/mL, 18 h at 37°C, triplicate
compound,measurement,setting,value
"CN[C@H](CC(C)C)C(=O)N[C@H]1C(=O)N[C@@H](CC(N)=O)C(=O)N[C@H]2C(=O)N[C@H]3C(=O)N[C@H](C(=O)N[C@H](C(=O)O)c4cc(O)cc(O)c4-c4cc3ccc4O)[C@H](O)c3ccc(c(Cl)c3)Oc3cc2cc(c3O[C@@H]2O[C@H](CO)[C@@H](O)[C@H](O)[C@H]2O[C@H]2C[C@](C)(N)[C@H](O)[C@H](C)O2)Oc2ccc(cc2Cl)[C@H]1O [Vancomycin, vancomycin]",MIC,"S. aureus ATCC 6538P; Staphylococcus aureus, ATCC6538P, 18 h",1 µg/mL
same,MIC,"S. aureus ATCC 25923; Staphylococcus aureus, ATCC25923, 18 h",1 µg/mL
same,MBC Range,[1],1 to 4 µg/mL
same,MBC Range,[2],1 to 4 µg/mL
same,MIC50,[3],1 µg/mL
same,MIC90,[3],2 µg/mL
same,MIC,[3],0.5 to 2 µg/mL
same,MIC90,[3]; read-out: MICs 90%,2 µg/mL
same,MBC,[3]; read-out: MBC 50%,2 µg/mL
same,MBC,[3]; read-out: MBC 90%,4 µg/mL
same,MIC,"S. aureus ATCC 9144; Staphylococcus aureus, ATCC9144, 18 h",2 µg/mL
same,MIC50,[4],1 µg/mL
same,MIC90,[4],1 µg/mL
same,MIC,[4],0.5 to 1 µg/mL
same,MIC90,[4]; read-out: MICs 90%,1 µg/mL
same,MBC,[4]; read-out: MBC 50%,1 µg/mL
same,MBC,[4]; read-out: MBC 90%,2 µg/mL
"CC[C@H](C)[C@@H]1NC(=O)CNC(=O)[C@H](CCCNC(=N)N)NC(=O)[C@H](Cc2ccc(O)cc2)NC(=O)[C@@H]2CSSC[C@H](NC1=O)C(=O)N[C@@H](Cc1ccc(O)cc1)C(=O)N[C@@H](CCCNC(=N)N)C(=O)N[C@@H](CCCCN)C(=O)N[C@H](C(=O)N[C@@H](CCCNC(=N)N)C(N)=O)CSSC[C@H](NC(=O)[C@H](Cc1c[nH]c3ccccc13)NC(=O)[C@@H](N)CCCCN)C(=O)N[C@@H](Cc1ccccc1)C(=O)N[C@@H](CCCNC(=N)N)C(=O)N[C@@H](C(C)C)C(=O)N2 [Tachyplesin 3, tachyplesin 3] (H-KWCFRVCYRGICYRKCR-NH2; disulfide 3-16, 7-12 (inferred); N-terminus and C-terminus assumed)",MIC values (range),clinical isolates of SA,1 to 8 µg/mL
same,MBC 50%,[1],2 µg/mL
same,MBC 90%,[1],4 µg/mL
same,MBC 50%,[2],2 µg/mL
same,MBC 90%,[2],4 µg/mL
"CCCCCCCCCCCCCCCC(=O)N[C@@H](CCCCN)C(=O)N[C@@H](CCCCN)C(N)=O [Lipopeptide, Pal-KK-NH2]",MIC values (range),clinical isolates of SA,1 to 8 µg/mL
same,MIC,S. aureus ATCC 6538P; [5],2 µg/mL
same,MIC,S. aureus ATCC 25923; [6],4 µg/mL
same,MBC 50%,[1],4 µg/mL
same,MBC 90%,[1],8 µg/mL
same,MIC 50%,[1]; [7],2 µg/mL
same,MIC 90%,[1]; [7],4 µg/mL
same,MIC Range,[1]; [7],1 to 8 µg/mL
same,MBC Range,[1]; [8],2 to 8 µg/mL
same,MBC 50%,[2],4 µg/mL
same,MBC 90%,[2],8 µg/mL
same,MIC 50%,[2]; [9],2 µg/mL
same,MIC 90%,[2]; [9],4 µg/mL
same,MIC Range,[2]; [9],1 to 8 µg/mL
same,MBC Range,[2]; [10],2 to 8 µg/mL
same,MIC,S. aureus ATCC 9144; [11],2 µg/mL
"CCCCCCCCCC(=O)N[C@@H](Cc1c[nH]c2ccccc12)C(=O)N[C@H](CC(N)=O)C(=O)N[C@@H](CC(=O)O)C(=O)N[C@@H]1C(=O)NCC(=O)N[C@@H](CCCN)C(=O)N[C@@H](CC(=O)O)C(=O)N[C@H](C)C(=O)N[C@@H](CC(=O)O)C(=O)NCC(=O)N[C@H](CO)C(=O)N[C@@H]([C@H](C)CC(=O)O)C(=O)N[C@@H](CC(=O)c2ccccc2N)C(=O)O[C@@H]1C [Daptomycin, daptomycin]",MICs values (range),clinical isolates of SA,1 to 4 mg/L
same,MIC,S. aureus ATCC 6538P; [5],2 µg/mL
same,MIC,S. aureus ATCC 25923; [6],2 µg/mL
same,MBC 50%,[1],2 µg/mL
same,MBC 90%,[1],4 µg/mL
same,MIC 50%,[1]; [7],1 µg/mL
same,MIC 90%,[1]; [7],2 µg/mL
same,MIC Range,[1]; [7],1 to 4 µg/mL
same,MBC Range,[1]; [8],1 to 4 µg/mL
same,MBC 50%,[2],2 µg/mL
same,MBC 90%,[2],2 µg/mL
same,MIC 50%,[2]; [9],1 µg/mL
same,MIC 90%,[2]; [9],2 µg/mL
same,MIC Range,[2]; [9],1 to 4 µg/mL
same,MBC Range,[2]; [10],1 to 4 µg/mL
same,MIC,S. aureus ATCC 9144; [11],2 µg/mL
"CC(C)C[C@H](NC(=O)[C@H](CCCNC(=N)N)NC(=O)CNC(=O)CNC(=O)[C@@H](N)CCCNC(=N)N)C(=O)N[C@H]1CSSC[C@@H](C(=O)N[C@H](C(=O)NCC(=O)N[C@@H](CCCNC(=N)N)C(N)=O)C(C)C)NC(=O)[C@H](C(C)C)NC(=O)[C@@H]2CSSC[C@H](NC(=O)[C@H](Cc3ccc(O)cc3)NC1=O)C(=O)N[C@@H](CCCNC(=N)N)C(=O)N[C@@H](CCCNC(=N)N)C(=O)N[C@@H](CCCNC(=N)N)C(=O)N[C@@H](Cc1ccccc1)C(=O)N2 [Protegrin 1, protegrin 1]",MIC values (range),clinical isolates of SA,1 to 8 µg/mL
same,MIC,S. aureus ATCC 6538P; [5],4 µg/mL
same,MIC,S. aureus ATCC 25923; [6],4 µg/mL
same,MBC 50%,[1],4 µg/mL
same,MBC 90%,[1],8 µg/mL
same,MIC 50%,[1]; [7],2 µg/mL
same,MIC 90%,[1]; [7],4 µg/mL
same,MIC Range,[1]; [7],1 to 4 µg/mL
same,MBC Range,[1]; [8],2 to 8 µg/mL
same,MBC 50%,[2],4 µg/mL
same,MBC 90%,[2],8 µg/mL
same,MIC 50%,[2]; [9],2 µg/mL
same,MIC 90%,[2]; [9],4 µg/mL
same,MIC Range,[2]; [9],1 to 4 µg/mL
same,MBC Range,[2]; [10],2 to 8 µg/mL
same,MIC,S. aureus ATCC 9144; [11],2 µg/mL
"CCC[C@@H]1C[C@@H](C(=O)N[C@@H]([C@H]2O[C@H](SC)[C@H](O)[C@@H](O)[C@H]2O)[C@H](C)Cl)N(C)C1 [Clindamycin, clindamycin]",MIC,"S. aureus ATCC 6538P; Staphylococcus aureus, ATCC6538P, ATCC 6538P, microbroth dilution, MHB II, 5 × 10^5 CFU/mL, 18 h at 37°C, triplicate, read-out: MIC",4 µg/mL
same,MIC,"S. aureus ATCC 25923; Staphylococcus aureus, ATCC25923, ATCC 25923, microbroth dilution, MHB II, 5 × 10^5 CFU/mL, 18 h at 37°C, triplicate, read-out: MIC",2 µg/mL
same,MBC Range,[1]; [8],16 to 512 µg/mL
same,MBC Range,[2]; [10],64 to 128 µg/mL
same,MIC50,[3],64 µg/mL
same,MIC90,[3],512 µg/mL
same,MIC,[3],8 to 512 µg/mL
same,MIC90,[3]; read-out: MICs 90%,512 µg/mL
same,MBC,[3]; read-out: MBC 50%,64 µg/mL
same,MBC,[3]; read-out: MBC 90%,128 µg/mL
same,MIC,"S. aureus ATCC 9144; Staphylococcus aureus, ATCC9144, ATCC 9144, microbroth dilution, MHB II, 5 × 10^5 CFU/mL, 18 h at 37°C, triplicate, read-out: MIC",2 µg/mL
same,MIC50,[4],32 µg/mL
same,MIC90,[4],32 µg/mL
same,MIC,[4],16 to 64 µg/mL
same,MIC90,[4]; read-out: MICs 90%,32 µg/mL
same,MBC,[4]; read-out: MBC 50%,32 µg/mL
same,MBC,[4]; read-out: MBC 90%,64 µg/mL
